Test results as given in PubChem BioAssay AID248 (DTP/NCI, 2004).
Where “and” joins values, the source holds several entries; their conditions need not be identical. Equal values may be shown once. Toxic doses and inconclusive results are not listed. No stated cut-off is given here; in the data, active means T/C of 150% or more; inactive means T/C below 125%.

Test system: L1210 leukemia ip in BDF1 mice, survival T/C
Test: NCI In Vivo Anticancer Drug Screen. Data for tumor model L1210 Leukemia (intraperitoneal) in B6D2F1 (BDF1) mice
Settings: endpoint: mean survival time, higher = longer survival
How it was run: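 Tumor was transplanted into mice, which were then dosed with test compound or vehicle alone. Survival was recorded for each group, and the treated figure was expressed relative to the control figure.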

[1] = dose: 50.0 mg/kg/injection, schedule: Q01DX009 (ip), vehicle: saline
[2] = dose: 100.0 mg/kg/injection, schedule: Q01DX009 (ip), vehicle: saline
[3] = dose: 100.0 mg/kg/injection, schedule: Q04DX003 (ip), vehicle: saline
[4] = dose: 200.0 mg/kg/injection, schedule: Q01DX009 (ip), vehicle: saline
[5] = dose: 200.0 mg/kg/injection, schedule: Q04DX003 (ip), vehicle: saline
[6] = dose: 100.0 mg/kg/injection, schedule: Q01DX001 (ip), vehicle: saline
[7] = dose: 200.0 mg/kg/injection, schedule: Q01DX001 (ip), vehicle: saline
[8] = dose: 400.0 mg/kg/injection, schedule: Q01DX001 (ip), vehicle: saline
[9] = dose: 50.0 mg/kg/injection, schedule: Q01DX009 (ip), vehicle: saline with Tween-80
[10] = dose: 100.0 mg/kg/injection, schedule: Q01DX009 (ip), vehicle: saline with Tween-80
[11] = dose: 100.0 mg/kg/injection, schedule: Q04DX003 (ip), vehicle: Klucel (hydroxypropylcellulose) (HPC)
[12] = dose: 200.0 mg/kg/injection, schedule: Q01DX009 (ip), vehicle: saline with Tween-80
[13] = dose: 200.0 mg/kg/injection, schedule: Q04DX003 (ip), vehicle: Klucel (hydroxypropylcellulose) (HPC)
[14] = dose: 400.0 mg/kg/injection, schedule: Q04DX003 (ip), vehicle: Klucel (hydroxypropylcellulose) (HPC)
[15] = dose: 100.0 mg/kg/injection, schedule: Q01DX001 (ip), vehicle: Klucel (hydroxypropylcellulose) (HPC)
[16] = dose: 200.0 mg/kg/injection, schedule: Q01DX001 (ip), vehicle: Klucel (hydroxypropylcellulose) (HPC)
[17] = dose: 400.0 mg/kg/injection, schedule: Q01DX001 (ip), vehicle: Klucel (hydroxypropylcellulose) (HPC)
[18] = dose: 100.0 mg/kg/injection, schedule: Q01DX001 (ip), vehicle: carboxymethylcellulose (CMC)
[19] = dose: 200.0 mg/kg/injection, schedule: Q01DX001 (ip), vehicle: carboxymethylcellulose (CMC)
[20] = dose: 400.0 mg/kg/injection, schedule: Q01DX001 (ip), vehicle: carboxymethylcellulose (CMC)
[21] = dose: 200.0 mg/kg/injection, schedule: Q04DX003 (ip), vehicle: saline with Tween-80
[22] = dose: 400.0 mg/kg/injection, schedule: Q04DX003 (ip), vehicle: saline with Tween-80

Measured: T/C

S=c1cc(-c2ccc(Cl)cc2)ss1
inactive: [1] 93 % of control | [2] 93 % of control and 90 % of control | [3] 92 % of control | [4] 95 % of control and 90 % of control | [5] 100 % of control | dose: 300.0 mg/kg/injection, schedule: Q01DX009 (ip), vehicle: saline 95 % of control | dose: 400.0 mg/kg/injection, schedule: Q01DX009 (ip), vehicle: saline 95 % of control

NOCc1cscn1
inactive: [6] 98 % of control | [7] 101 % of control | [8] 101 % of control

CC(=O)OC1CCC2(C)C(CCC3C(CCC(=O)O)C(C)(CC(C)C(=O)O)CCC32)C1 (centres undefined)
inactive: dose: 100.0 mg/kg/injection, schedule: Q04DX003 (sc), vehicle: steriod suspending solution 116 % of control | dose: 200.0 mg/kg/injection, schedule: Q04DX003 (sc), vehicle: steriod suspending solution 109 % of control | dose: 400.0 mg/kg/injection, schedule: Q04DX003 (sc), vehicle: steriod suspending solution 113 % of control

N#Cc1nn(CCCl)c(=O)c2ccccc12
inactive: dose: 100.0 mg/kg/injection, schedule: Q01DX001 (ip), vehicle: alcohol 98 % of control | dose: 100.0 mg/kg/injection, schedule: Q04DX003 (ip), vehicle: alcohol 95 % of control | dose: 200.0 mg/kg/injection, schedule: Q01DX001 (ip), vehicle: alcohol 107 % of control | dose: 200.0 mg/kg/injection, schedule: Q04DX003 (ip), vehicle: alcohol 97 % of control | dose: 400.0 mg/kg/injection, schedule: Q01DX001 (ip), vehicle: alcohol 107 % of control | dose: 400.0 mg/kg/injection, schedule: Q04DX003 (ip), vehicle: alcohol 87 % of control

O=C(Nc1ccccc1)Nc1ccccc1
inactive: [9] 96 % of control | [6] 97 % of control | [10] 91 % of control | [11] 90 % of control | [7] 92 % of control | [12] 103 % of control | [13] 95 % of control | [8] 94 % of control | [14] 96 % of control

COc1ccc2nonc2c1
inactive: dose: 100.0 mg/kg/injection, schedule: Q01DX001 (ip), vehicle: other 100 % of control | dose: 200.0 mg/kg/injection, schedule: Q01DX001 (ip), vehicle: other 110 % of control

CCOC(C[N+](C)(C)C)OCC
inactive: dose: 50.0 mg/kg/injection, schedule: Q04DX003 (ip), vehicle: saline 93 % of control | [3] 97 % of control | [5] 101 % of control

c1ccc(CNCc2cccnc2)cc1
inactive: dose: 75.0 mg/kg/injection, schedule: Q01DX009 (ip), vehicle: other 91 % of control | dose: 150.0 mg/kg/injection, schedule: Q01DX009 (ip), vehicle: other 98 % of control

Cc1c(C)c2c(C#N)c3ccccc3nc2c2ccccc12
inactive: dose: 50.0 mg/kg/injection, schedule: Q04DX003 (ip), vehicle: Klucel (hydroxypropylcellulose) (HPC) 102 % of control | [11] 102 % of control | [13] 107 % of control | [14] 103 % of control

COc1cc(C(=O)O)ccc1OCCNS(C)(=O)=O
inactive: [15] 96 % of control | [11] 105 % of control | [16] 102 % of control | [13] 96 % of control | [17] 100 % of control | [14] 94 % of control

COc1cc2c(cc1OC)C1C(C)c3ccc(OC)c(OC)c3CN1CC2 (centres undefined)
inactive: [18] 100 % of control | [19] 100 % of control | [20] 96 % of control

O=C(Nc1ccc(Cl)cc1)C(O)C(O)C(O)C(O)CO (centres undefined)
inactive: [1] 100 % of control | [2] 103 % of control | [4] 100 % of control

NNc1ccc(-c2ccc(NN)cc2)cc1
inactive: [21] 95 % of control | [22] 98 % of control

C=C1C(=O)OC2C3=C(C)C(=O)CC3C3(C)CC3C12 (centres undefined)
inactive: dose: 50.0 mg/kg/injection, schedule: Q01DX001 (ip), vehicle: water 103 % of control

CCCN1CCN(CCO)CC1C (centres undefined)
inactive: [6] 98 % of control | [7] 101 % of control | [8] 98 % of control

CN1C(=O)OC2(CCN(CCCS(=O)(=O)c3ccc(F)cc3)CC2)C1=O
inactive: [15] 92 % of control | [16] 105 % of control | [17] 93 % of control

O=c1c(N2CCOCC2)c(N2CCOCC2)c1=O
inactive: [10] 100 % of control | dose: 100.0 mg/kg/injection, schedule: Q04DX003 (ip), vehicle: saline with Tween-80 104 % of control | [12] 100 % of control | [21] 103 % of control | dose: 400.0 mg/kg/injection, schedule: Q01DX009 (ip), vehicle: saline with Tween-80 100 % of control | [22] 95 % of control

NC(=O)N/C=N/N=C(N)N
inactive: dose: 15.0 mg/kg/injection, schedule: Q01DX Z (ip), vehicle: methylcellulose (MC) 101 % of control | dose: 30.0 mg/kg/injection, schedule: Q01DX Z (ip), vehicle: methylcellulose (MC) 107 % of control | dose: 60.0 mg/kg/injection, schedule: Q01DX Z (ip), vehicle: methylcellulose (MC) 108 % of control | dose: 120.0 mg/kg/injection, schedule: Q01DX Z (ip), vehicle: methylcellulose (MC) 108 % of control | dose: 240.0 mg/kg/injection, schedule: Q01DX Z (ip), vehicle: methylcellulose (MC) 94 % of control | dose: 420.0 mg/kg/injection, schedule: Q01DX Z (ip), vehicle: methylcellulose (MC) 94 % of control | dose: 600.0 mg/kg/injection, schedule: Q01DX Z (ip), vehicle: methylcellulose (MC) 86 % of control

c1ccc2c(c1)c1c(c3ccccc32)CN2CCCC2C1 (centres undefined)
inactive: dose: 50.0 mg/kg/injection, schedule: Q01DX001 (ip), vehicle: carboxymethylcellulose (CMC) 105 % of control | [18] 105 % of control | [19] 92 % of control | [20] 103 % of control

N#CCCSCCc1ccccc1
inactive: dose: 75.0 mg/kg/injection, schedule: Q01DX009 (ip), vehicle: saline with Tween-80 91 % of control | dose: 150.0 mg/kg/injection, schedule: Q01DX009 (ip), vehicle: saline with Tween-80 96 % of control

CC(C)=CCN(CC=C(C)C)CCC(C#N)(c1ccc2ccccc2c1)C(C)C (centres undefined)
inactive: dose: 50.0 mg/kg/injection, schedule: Q01DX009 (ip), vehicle: Klucel (hydroxypropylcellulose) (HPC) 106 % of control | dose: 100.0 mg/kg/injection, schedule: Q01DX009 (ip), vehicle: Klucel (hydroxypropylcellulose) (HPC) 95 % of control | [11] 102 % of control | [13] 98 % of control

NC(=O)Nc1ccc(Cl)cc1
inactive: [10] 101 % of control | [11] 99 % of control | [12] 96 % of control | [13] 91 % of control | [14] 102 % of control

O=c1cc(S(=O)(=O)c2ccccc2)[nH]c(=O)[nH]1
inactive: [11] 97 % of control | [13] 101 % of control

COc1cc2c(cc1OC)C(c1ccc(O)c(O)c1)CNC2 (centres undefined)
inactive: [9] 101 % of control | [10] 100 % of control | [12] 95 % of control

BrCC1CCCCO1 (centres undefined)
inactive: dose: 12.5 mg/kg/injection, schedule: Q01DX009 (ip), vehicle: saline with Tween-80 94 % of control | dose: 12.5 mg/kg/injection, schedule: Q04DX003 (ip), vehicle: saline with Tween-80 108 % of control | dose: 25.0 mg/kg/injection, schedule: Q01DX009 (ip), vehicle: saline with Tween-80 99 % of control | dose: 25.0 mg/kg/injection, schedule: Q04DX003 (ip), vehicle: saline with Tween-80 108 % of control | [9] 99 % of control | dose: 50.0 mg/kg/injection, schedule: Q04DX003 (ip), vehicle: saline with Tween-80 97 % of control

CC(C)=CCC/C(C)=C/CC/C(C)=C/COC(N)=O
inactive: [11] 93 % of control | [13] 96 % of control | [14] 91 % of control

O=[N+]([O-])c1ccc(/C=N/O)s1
inactive: dose: 25.0 mg/kg/injection, schedule: Q04DX002 (ip), vehicle: saline with Tween-80 95 % of control | dose: 50.0 mg/kg/injection, schedule: Q04DX002 (ip), vehicle: saline with Tween-80 104 % of control
